Assay results from the NIST ThermoML archive (doi:10.1021/je700260f).

Details: 303.15 K, Liquid, Vibrating tube method

FC(C(F)(F)F)C(F)(F)F [1,1,1,2,3,3,3-heptafluoropropane]
Details | mass density [kg/m3]
1945 kPa | 1378.6
1968 kPa | 1378.8
1989 kPa | 1379
2014 kPa | 1379.2
2041 kPa | 1379.4
2063 kPa | 1379.7
2084 kPa | 1379.7
2105 kPa | 1379.8
2131 kPa | 1380.1
2283 kPa | 1381.5
2308 kPa | 1381.6
2332 kPa | 1381.8
2353 kPa | 1381.9
2378 kPa | 1382.2
2402 kPa | 1382.4
2418 kPa | 1382.4
2439 kPa | 1382.6
2461 kPa | 1382.7
2482 kPa | 1383
2510 kPa | 1383.4
2528 kPa | 1383.3
2552 kPa | 1383.4
2569 kPa | 1383.6
2591 kPa | 1383.8
2607 kPa | 1384
2632 kPa | 1384.1
2651 kPa | 1384.2
2673 kPa | 1384.4
2695 kPa | 1384.5
2718 kPa | 1384.7
2737 kPa | 1384.9
2762 kPa | 1385
3000 kPa | 1387
3022 kPa | 1387.1
3068 kPa | 1387.5
3088 kPa | 1387.7
3114 kPa | 1387.8
3136 kPa | 1387.9
3203 kPa | 1388.6
3222 kPa | 1388.8
3271 kPa | 1389
3293 kPa | 1389.2
3319 kPa | 1389.4
3357 kPa | 1389.6
3383 kPa | 1389.8
3402 kPa | 1390.2
3428 kPa | 1390.3
3448 kPa | 1390.3
3471 kPa | 1390.4
3498 kPa | 1390.7
3521 kPa | 1390.8
3541 kPa | 1391.2
3568 kPa | 1391.4
3587 kPa | 1391.3
3614 kPa | 1391.6
3637 kPa | 1391.7
3667 kPa | 1391.9
3690 kPa | 1392.1
3714 kPa | 1392.2
3735 kPa | 1392.5
3765 kPa | 1392.7
3789 kPa | 1393
3820 kPa | 1393
3844 kPa | 1393.3
3875 kPa | 1393.5
3902 kPa | 1393.7
3919 kPa | 1393.8
3940 kPa | 1394
3964 kPa | 1394.2
3991 kPa | 1394.5
4022 kPa | 1394.6
4050 kPa | 1394.7
4072 kPa | 1395
4099 kPa | 1395.1
4123 kPa | 1395.3
4147 kPa | 1395.5
4168 kPa | 1395.6
4189 kPa | 1395.8
4217 kPa | 1396
4249 kPa | 1396.3
4273 kPa | 1396.5
4290 kPa | 1396.4
4416 kPa | 1397.5
4444 kPa | 1397.6
4466 kPa | 1397.8
4497 kPa | 1397.9
4524 kPa | 1398
4552 kPa | 1398.4
4582 kPa | 1398.6
4611 kPa | 1398.9
4633 kPa | 1399.1
4659 kPa | 1399.4
4684 kPa | 1399.2
4710 kPa | 1399.5
4735 kPa | 1399.6
4765 kPa | 1399.9
4788 kPa | 1400
4811 kPa | 1400.2
4875 kPa | 1400.6
4904 kPa | 1400.9
4933 kPa | 1401.1
4958 kPa | 1401.2
4984 kPa | 1401.4
5013 kPa | 1401.5
5035 kPa | 1401.8
5060 kPa | 1401.7
5082 kPa | 1402.2
5116 kPa | 1402.4
5146 kPa | 1402.4
5172 kPa | 1402.6
5194 kPa | 1402.8
5221 kPa | 1403
5239 kPa | 1403
5261 kPa | 1403.2
5286 kPa | 1403.5
5308 kPa | 1403.6
5335 kPa | 1403.7
5356 kPa | 1403.9
5379 kPa | 1404
5405 kPa | 1404.1
5427 kPa | 1404.4
5457 kPa | 1404.7
5479 kPa | 1404.8
5509 kPa | 1405
5546 kPa | 1405.2
5568 kPa | 1405.3
5609 kPa | 1405.6
5635 kPa | 1405.8
5654 kPa | 1405.9
5688 kPa | 1406.2
5715 kPa | 1406.3
5738 kPa | 1406.4
5768 kPa | 1406.6
5795 kPa | 1406.8
5829 kPa | 1407.1
5856 kPa | 1407.3
5879 kPa | 1407.3
5906 kPa | 1407.7
5934 kPa | 1407.9
5957 kPa | 1408
5980 kPa | 1408.2
6003 kPa | 1408.2
6033 kPa | 1408.4
6056 kPa | 1408.6
6080 kPa | 1408.8
6108 kPa | 1408.9
6135 kPa | 1409
6167 kPa | 1409.2
6186 kPa | 1409.4
6217 kPa | 1409.6
6240 kPa | 1409.7
6272 kPa | 1409.9
6300 kPa | 1410.1
6332 kPa | 1410.3
6356 kPa | 1410.5
6382 kPa | 1410.7
6413 kPa | 1410.8
6441 kPa | 1411.1
6469 kPa | 1411.1
6493 kPa | 1411.3
6529 kPa | 1411.6
6556 kPa | 1411.7
6581 kPa | 1411.9
6617 kPa | 1412.2
6647 kPa | 1412.4
6675 kPa | 1412.6
6699 kPa | 1412.7
6720 kPa | 1412.9
6744 kPa | 1413.1
6772 kPa | 1413.3
6796 kPa | 1413.4
6820 kPa | 1413.5
6845 kPa | 1413.6
6881 kPa | 1414
6909 kPa | 1414.1
6937 kPa | 1414.3
6974 kPa | 1414.4
7006 kPa | 1414.7
7030 kPa | 1414.8
7056 kPa | 1415
7077 kPa | 1415.1
7110 kPa | 1415.2
7138 kPa | 1415.5
7171 kPa | 1415.7
7192 kPa | 1415.8
7216 kPa | 1416
7441 kPa | 1417.3
7474 kPa | 1417.5
7507 kPa | 1417.7
7536 kPa | 1417.9
7570 kPa | 1418.2
7599 kPa | 1418.3
7628 kPa | 1418.5
7669 kPa | 1418.7
7702 kPa | 1418.8
7727 kPa | 1419
7762 kPa | 1419.2
7795 kPa | 1419.4
7821 kPa | 1419.5
7850 kPa | 1419.8
7879 kPa | 1420
7912 kPa | 1420.3
7941 kPa | 1420.4
7970 kPa | 1420.6
8008 kPa | 1420.7
8033 kPa | 1421
